Results as given in ChEMBL document CHEMBL2203181, “Microwave-assisted synthesis, molecular docking and antitubercular activity of 1,2,3,4-tetrahydropyrimidine-5-carbonitrile derivatives” (2012).

Columns and labels:
Type in all cases: functional
Design in all cases: scale not given: the % may be the effect or the level left
[1] = system: Mycobacterium tuberculosis; test: Antitubercular activity against Mycobacterium tuberculosis H37Rv assessed as reduction in RLU at 100 ug/mL after 72 hrs by luciferase reporter phage assay
[2] = system: Mycobacterium tuberculosis; test: Antitubercular activity against Mycobacterium tuberculosis H37Rv assessed as reduction in RLU at 500 ug/mL after 72 hrs by luciferase reporter phage assay
[3] = system: Mycobacterium tuberculosis; test: Antitubercular activity against Mycobacterium tuberculosis H37Rv assessed as reduction in RLU at 0.5 ug/mL after 72 hrs by luciferase reporter phage assay
[4] = system: Mycobacterium tuberculosis; test: Antitubercular activity against Mycobacterium tuberculosis H37Rv assessed as reduction in RLU at 2 ug/mL after 72 hrs by luciferase reporter phage assay

| Structure (SMILES) | Activity [1] [%] | Activity [2] [%] | Activity [3] [%] | Activity [4] [%] |
| --- | --- | --- | --- | --- |
| N#Cc1c(-c2ccc(F)cc2)[nH]c(=O)[nH]c1=O | 46.49 | 44.2 |  |  |
| N#Cc1c(-c2cccc(Cl)c2)[nH]c(=O)[nH]c1=O | 54.28 | 61.02 |  |  |
| COc1ccc(-c2[nH]c(=O)[nH]c(=O)c2C#N)cc1O | 33.4 | 48.72 |  |  |
| N#Cc1c(-c2ccc(Cl)cc2)[nH]c(=S)[nH]c1=O | 46.21 | 65.23 |  |  |
| N#Cc1c(-c2ccc(Br)cc2)[nH]c(=S)[nH]c1=O | 75.73 | 82.04 |  |  |
| NNC(=O)c1ccncc1 [ISONIAZID] |  |  | 98.42 |  |
| CO[C@H]1/C=C/O[C@@]2(C)Oc3c(C)c(O)c4c(O)c(c(/C=N/N5CCN(C)CC5)c(O)c4c3C2=O)NC(=O)/C(C)=C\C=C\[C@H](C)[C@H](O)[C@@H](C)[C@@H](O)[C@@H](C)[C@H](OC(C)=O)[C@@H]1C [RIFAMPIN] |  |  |  | 82.58 |
